Among the data in ChEMBL document CHEMBL3045658, “Design, synthesis, antiviral activity, and SARs of 14-aminophenanthroindolizidines” (2012) are inhibition and inhibition in vivo values, retold here.

What all share (assay type): functional
Assay [1] deals with Tobacco mosaic virus. The assay can be described thus: Antiviral activity against Tobacco mosaic virus (TMV) inoculated in 5-6 growth stage leaf assessed as inhibition effect at 100 ug/mL at 25 degC after 72 hr by half-leaf method.
The subject of assay [2] is Tobacco mosaic virus. The assay can be described thus: In vivo antiviral activity against Tobacco mosaic virus (TMV) inoculated right side of Nicotiana. tabacum L. leaves assessed as protection effect at 500 ug/mL preincubated 12 hr before viral challenge measured after 3 to 4 days.
For assay [3], the system named is Tobacco mosaic virus. In words: In vivo antiviral activity against Tobacco mosaic virus (TMV) inoculated right side of Nicotiana. tabacum L. leaves assessed as protection effect at 100 ug/mL preincubated 12 hr before viral challenge measured after 3 to 4 days.
Assay [4] has as its system Tobacco mosaic virus. In words: In vivo antiviral activity against Tobacco mosaic virus (TMV) pre-inoculated Nicotiana. tabacum L. leaves assessed as curative effect at 100 ug/mL measured after 3 to 4 days.
Assay [5] has as its system Tobacco mosaic virus. The assay can be described thus: In vivo antiviral activity against Tobacco mosaic virus (TMV) pre-inoculated Nicotiana. tabacum L. leaves assessed as curative effect at 500 ug/mL measured after 3 to 4 days.
The subject of assay [6] is Tobacco mosaic virus. The assay can be described thus: Antiviral activity against Tobacco mosaic virus (TMV) inoculated in 5-6 growth stage leaf assessed as inhibition effect at 500 ug/mL at 25 degC after 72 hr by half-leaf method.
Assay [7] deals with Tobacco mosaic virus. In words: In vivo antiviral activity against Tobacco mosaic virus (TMV) inoculated left side of Nicotiana. tabacum L. leaves assessed as inactivation effect at 500 ug/mL co-incubated with virus measured after 3 to 4 days.
Assay [8] has as its system Tobacco mosaic virus. The assay can be described thus: In vivo antiviral activity against Tobacco mosaic virus (TMV) inoculated left side of Nicotiana. tabacum L. leaves assessed as inactivation effect at 100 ug/mL co-incubated with virus measured after 3 to 4 days.
Assay [9] has as its system Tobacco mosaic virus. In words: Antiviral activity against Tobacco mosaic virus (TMV) assessed as inhibition effect at 500 ug/mL.
Assay [10] deals with Tobacco mosaic virus. In words: Antiviral activity against Tobacco mosaic virus (TMV) assessed as inhibition effect at 1 ug/mL.

As a reminder, the inhibition is the drop in the measured response relative to a control, in per cent. The inhibition in vivo is the relative decrease from the control value, in per cent. Regarding `COc1ccc2c3c(c4cc(OC)c(OC)cc4c2c1)[C@H](NC(C)=O)[C@@H]1CCCN1C3`, the inhibition at 100 µg/mL in assay [1] stood at 55%. Moreover, the inhibition in vivo at 500 µg/mL in assay [2] was determined as 72.7%; in assay [5] it was 69.6%; in assay [7], 72.2%. In addition, the inhibition in vivo at 100 µg/mL stood at 55.3% in assay [3], 50.8% in assay [4] and 40.4% in [8]. Also, the inhibition at 500 µg/mL in [6] worked out at 75.1%.
`COc1cc2c3c(c4cc(OC)c(OC)cc4c2cc1OC)[C@H](N)[C@@H]1CCCN1C3`: in assay [1], the inhibition at 100 µg/mL turned out to be 0%. Also, the inhibition in vivo at 500 µg/mL in assay [2] is 18.4%; in [5], 15.5%; in assay [7], 17.6%. Also, the inhibition in vivo at 100 µg/mL in assay [3] turned out to be 7.3%; in assay [4], 0%; in assay [8], 11.2%. Also, in assay [6], the inhibition at 500 µg/mL came to 12.9%.
Consider `COc1ccc2c3c(c4cc(OC)c(OC)cc4c2c1)[C@H](N)[C@@H]1CCCN1C3`, for which the inhibition at 100 µg/mL in [1] stood at 32.5%. Further, the inhibition in vivo at 500 µg/mL worked out at 44.4% in assay [2], 42.3% in assay [5] and 41.9% in [7]. Moreover, the inhibition in vivo at 100 µg/mL in assay [3] came out at 30.1%; in [4] it was 29.6%; in assay [8], 32.1%. Further, the inhibition at 500 µg/mL in assay [6] turned out to be 48.2%.
In the case of `COc1ccc2c3c(c4cc(OC)c(OC)cc4c2c1)CN1CCC[C@H]1[C@H]3N`, in [1], the inhibition at 100 µg/mL was found to be 45%. Further, the inhibition in vivo at 500 µg/mL in [2] came out at 71.6%; in [5], 68%; in [7], 70.3%. Besides, the inhibition in vivo at 100 µg/mL in [3] was determined as 38.9%; in assay [4], 48.2%; in assay [8] it was 32.8%. The inhibition at 500 µg/mL in assay [6] turned out to be 72.4%.
On to `COc1cc2c3c(c4cc(OC)c(OC)cc4c2cc1OC)[C@H](NC(C)=O)[C@@H]1CCCN1C3`, for which the inhibition at 100 µg/mL in [1] was found to be 21.1%. Besides, the inhibition in vivo at 500 µg/mL in [2] was determined as 41.5%; in assay [5], 37.4%; in [7], 46.4%. Besides, the figures for the inhibition in vivo at 100 µg/mL in assay [3], in [4] and in assay [8] were 29.3%, 25.3% and 31.1%, respectively. Further, the inhibition at 500 µg/mL in assay [6] was 34.7%.
With `COc1ccc2c3c(c4cc(OC)c(OC)cc4c2c1)CN1CCC[C@H]1[C@H]3NC(C)=O`, the inhibition at 100 µg/mL in [1] came out at 7.4%. Moreover, the results for the inhibition in vivo at 500 µg/mL in assay [2], in [5] and in assay [7] were 28.6%, 25.2% and 38.1%, respectively. Also, the inhibition in vivo at 100 µg/mL in assay [3] came to 15.3%; in assay [4], 0%; in assay [8], 16.7%. Moreover, in assay [6], the inhibition at 500 µg/mL stood at 23.5%.
`COc1cc2c3c(c4cc(OC)c(OC)cc4c2cc1OC)[C@H](NC(=O)C(C)(C)C)[C@@H]1CCCN1C3`: the inhibition at 100 µg/mL in assay [1] was found to be 23.1%. For the same compound, the values for the inhibition in vivo at 500 µg/mL in assay [2], in assay [5] and in assay [7] were 38.9%, 38.5% and 28.5%, respectively. In addition, the inhibition in vivo at 100 µg/mL in [3] worked out at 22%; in assay [4], 26.3%; in assay [8] it was 16.9%. Besides, the inhibition at 500 µg/mL in assay [6] was 42.4%.
As for `COc1ccc2c3c(c4cc(OC)c(OC)cc4c2c1)[C@H](NC(=O)C(C)(C)C)[C@@H]1CCCN1C3`, the inhibition at 100 µg/mL in assay [1] came to 28.7%. In addition, the inhibition in vivo at 500 µg/mL is 52.6% in assay [2], 45.6% in [5] and 37.2% in [7]. Moreover, the figures for the inhibition in vivo at 100 µg/mL in assay [3], in [4] and in assay [8] were 24.7%, 31.4% and 23.6%, respectively. In [6], the inhibition at 500 µg/mL was determined as 48.3%.
For `COc1ccc2c3c(c4cc(OC)c(OC)cc4c2c1)CN1CCC[C@H]1[C@H]3NC(=O)C(C)(C)C`, the inhibition at 100 µg/mL in [1] amounted to 30%. Further, the results for the inhibition in vivo at 500 µg/mL in assay [2], in assay [5] and in assay [7] were 43.1%, 45% and 31.9%, respectively. Moreover, the figures for the inhibition in vivo at 100 µg/mL in assay [3], in [4] and in [8] were 23.6%, 27.7% and 15.4%, respectively. Further, the inhibition at 500 µg/mL in [6] was determined as 49.1%.
As for `O=C1NCNC(=O)N1`, the inhibition at 500 µg/mL in assay [9] amounted to 50%.
Take `CC(=O)N1CN(C(C)=O)C(=O)NC1=O`: the inhibition at 500 µg/mL in assay [9] was determined as 50%.
For `COc1cc2c3c(c4ccc(O)cc4c2cc1OC)CN1CCC[C@@H]1C3`, in assay [10], the inhibition at 1 µg/mL was determined as 70%.
Regarding `COc1cc2c3c(c4cc(OC)c(OC)cc4c2cc1OC)CN1CCCC1C3` (racemic) [(+/-)-TYLOPHORINE], the inhibition at 100 µg/mL in assay [1] was determined as 27.6%. Besides, the inhibition in vivo at 500 µg/mL in assay [2] came out at 56.6%; in assay [5], 52%; in [7] it was 46.5%. Besides, the inhibition in vivo at 100 µg/mL was determined as 31.5% in assay [3], 30.7% in assay [4] and 33.3% in [8]. For the same compound, the inhibition at 500 µg/mL in [6] stood at 51.8%.
As to `COc1ccc2c3c(c4cc(OC)c(OC)cc4c2c1)C[C@H]1CCCN1C3` [(-)-ANTOFINE], the inhibition at 1 µg/mL in [10] was 63%.
For the compound `CNCC(=O)N[C@@H](CO)C(=O)N[C@H]1[C@H](O)[C@@H](O)[C@H](n2ccc(N)nc2=O)O[C@@H]1C(N)=O` [NINGNANMYCIN], the inhibition at 100 µg/mL in assay [1] was 23.9%. For the same compound, the inhibition in vivo at 500 µg/mL in [2] came out at 66.6%; in [5] it was 56%; in assay [7] it was 68.5%. The inhibition in vivo at 100 µg/mL was 25.2% in assay [3], 18.9% in assay [4] and 37.7% in assay [8]. For the same compound, in assay [6], the inhibition at 500 µg/mL worked out at 70.2%.
As for `NC(=O)c1ncn([C@@H]2O[C@H](CO)[C@@H](O)[C@H]2O)n1` [RIBAVIRIN], the inhibition at 100 µg/mL in assay [1] was 19.6%. Besides, the results for the inhibition in vivo at 500 µg/mL in assay [2], in assay [5] and in assay [7] were 38.9%, 36.7% and 33.8%, respectively. Further, the inhibition in vivo at 100 µg/mL in assay [3] is 7.5%; in assay [4], 8.2%; in assay [8], 9.8%. For the same compound, the inhibition at 500 µg/mL in [6] was determined as 41%.
